{"source": "PubChem BioAssay AID504605", "about": "(National Center for Advancing Translational Sciences (NCATS), 2011)", "tested_on": "mouse liver microsomes, LC-MS/MS, half-life", "experiment": "Inhibitors of 12-hLO: Mouse Liver Microsome Stability Profiling", "conditions": "at 1 µM; hits give high values", "description": "Assay Provider: Holman, T.R., University of California, Santa Cruz Grant #: MH08128301 Screening Center PI: Austin, C.P. Screening Center: NIH Chemical Genomics Center [NCGC] Human lipoxygenase 12hLO is a member of the closely related lipoxygenase family of enzymes which catalyze the site-specific oxidation of arachidonic acid to various hormone precursor molecules and as such is a candidate for drug development in a variety of disease areas, such as cancer and inflammation. After qHTS, hits were confirmed in follow-up assays, and leads were optimized through SAR. The resulting lead compound was further characterized through a battery ADME-Tox experiments. These assay and this assay describes its mouse liver microsome stability. Mouse liver microsomes are created through broken up endoplasmic reticulum from mouse liver. These liver microsomes contain many drug metabolizing enzymes, such as Cytochome P-450s and flavin-containing monooxygenases. Because metabolism is major way of drug clearance, this is an important result.\n1uM of compound in incubated in mouse liver microsome; the reference compound is ketanserin. Compounds are incubated at 37 degrees C for different time periods: 0, 5, 15, 30, 45, and 60 minutes. Samples are analyzed with LC-MS/MS.", "data": [{"smiles": "CC(=O)NC(c1cccs1)c1cc(Br)c2cccnc2c1O", "note": "(stereo unspecified)", "values": [{"measurement": "half-life", "result": 9, "unit": "min"}]}]}
